Test results reported in article PMC7181277, “Synthesis and Biological Evaluation of New Antitubulin Agents Containing 2-(3′,4′,5′-trimethoxyanilino)-3,6-disubstituted-4,5,6,7-tetrahydrothieno[2,3-c]pyridine Scaffold” (Molecules, 2020).

Tests used:
[1] = system: tubulin (colchicine site); test: Inhibition of [3H]colchicine binding to tubulin; parameters: species or system Bovine; conditions: tubulin 1 μM, colchicine 5 μM, compound 5 μM
Experimental: (§1) Bovine brain tubulin was purified as described previously. To evaluate the effect of the compounds on tubulin assembly in vitro [59], varying concentrations were preincubated with 10 μM tubulin in 0.8 M glutamate buffer at 30 °C and then cooled to 0 °C. After addition of GTP, the mixtures were transferred to 0 °C cuvettes in a recording spectrophotometer and warmed to 30 °C, and the assembly of tubulin was observed turbidimetrically. […] The ability of the test compounds to inhibit colchicine binding to tubulin was measured as described earlier, except that the reaction mixtures contained 1 μM tubulin, 5 μM of [^3H]colchicine, and test compounds 3a or 3b.

[2] = system: murine leukemia (L1210) cells; test: In vitro antiproliferative assay, L1210 cells; format: cell-based; conditions: Mus musculus
From the text: In Table 1 we report the in vitro antiproliferative activity of 2-(3′,4′,5′-trimethoxyanilino)-4,5,6,7-tetrahydrothieno[2,3-c]pyridine derivatives 3a–3j and the related 4,5,6,7-tetrahydrobenzo[b]thiophenes 3k–3p against a panel of three cell lines, which were derived from different cancer types, including murine leukemia (L1210), human T-lymphoblastoid leukemia (CEM), and human cervix carcinoma (HeLa) cells.
(§2) Murine leukemia L1210, human T-lymphocyte leukemia CEM, human cervix carcinoma (HeLa), and human chronic myelogenous leukemia K562 cells (3–5 × 10^4 cells) and a serial (5-fold) dilution of the test compounds were added to a 96-well microtiter plate. The cells were incubated for 72 h at 37 °C in a humidified 5% CO2 atmosphere. At the end of the incubation period, the cells were counted in a Coulter Counter (Coulter Electronics Ltd., Harpenden Herts, United Kingdom). The IC50 (50% inhibitory concentration) was defined as the concentration of compound that inhibited cell proliferation by 50%. The IC50 values represent the average (± standard deviation) of three independent experiments. Human peripheral blood mononuclear cells (PBMC) were obtained from healthy donors by centrifugation with Ficoll-Paque Plus (GE Healthcare Bio-Sciences AB, Uppsala).

Bovine brain tubulin = test: Inhibition of tubulin polymerization (turbidimetric assembly); format: biochemical; conditions: tubulin at 10 μM, 20 min incubation; read-out: Tubulin assembly IC50 ± SD
Experimental: as §1

[3] = system: human cervix carcinoma (HeLa) cells; test: In vitro antiproliferative assay, HeLa cells; format: cell-based; conditions: human cervix carcinoma HeLa, 72 h, cell count; mean ± SE
Experimental: as §2, with “The IC50 (50% inhibitory concentration) was defined as the concentration of compound that inhibited cell proliferation by 50%.” left out

[4] = system: human T-lymphoblastoid leukemia (CEM) cells; test: In vitro antiproliferative assay, CEM cells; format: cell-based; conditions: CCRF-CEM; human T-lymphocyte CEM, 72 h, cell count; mean ± SE
Experimental: as §2, with “The IC50 (50% inhibitory concentration) was defined as the concentration of compound that inhibited cell proliferation by 50%.” left out

[5] = murine leukemia L1210, 72 h, cell count, mean ± SE

COc1ccc(/C=C\c2cc(OC)c(OC)c(OC)c2)cc1O [CA-4, combretastatin A-4, reference compound]
Colchicine binding % ± SD (inhibition of [3H]colchicine binding) [1]: 98 ± 0.9% | IC50 ([2]; L1210, 72 h): 0.0028 ± 0.0011 µM | IC50 (Bovine brain tubulin): […]

CCOC(=O)N1CCc2c(sc(NC(=O)c3cccs3)c2C#N)C1 [Compound 2b, reference compound]
IC50 [2, 5]: 6 ± 0.3 µM | IC50 [3]: 41 ± 27 µM | IC50 [4]: 3.7 ± 1.2 µM

COC(=O)c1c(Nc2cc(OC)c(OC)c(OC)c2)sc2c1CCN(C(=O)OC)C2 [Compound 3c, Dimethyl 2-((3,4,5-trimethoxyphenyl)amino)-4,5-dihydrothieno[2,3-c]pyridine-3,6(7H)-dicarboxylate]
melting point: 140 to 141 °C | IC50 [2, 5]: 17 ± 5 µM | IC50 [3]: 23 ± 10 µM | IC50 [4]: 16 ± 4 µM

CCOC(=O)N1CCc2c(sc(Nc3cc(OC)c(OC)c(OC)c3)c2C(=O)OC)C1 [Compound 3d, 6-Ethyl 3-methyl 2-((3,4,5-trimethoxyphenyl)amino)-4,5-dihydrothieno[2,3-c]pyridine-3,6(7H)-dicarboxylate]
melting point: 76 to 78 °C | IC50 [2, 5]: 15 ± 2 µM | IC50 [3]: 16 ± 3 µM | IC50 [4]: 12 ± 4 µM

COC(=O)c1c(Nc2cc(OC)c(OC)c(OC)c2)sc2c1CCN(C(C)=O)C2 [Compound 3e, Methyl 6-acetyl-2-((3,4,5-trimethoxyphenyl)amino)-4,5,6,7-tetrahydrothieno[2,3-c]pyridine-3-carboxylate]
melting point: 90 to 91 °C | IC50 [2, 5]: 26 ± 2 µM | IC50 [3]: 48 ± 17 µM | IC50 [4]: 43 ± 12 µM

CCOC(=O)c1c(Nc2cc(OC)c(OC)c(OC)c2)sc2c1CCN(C(=O)OC)C2 [Compound 3f, 3-Ethyl 6-methyl 2-((3,4,5-trimethoxyphenyl)amino)-4,5-dihydrothieno[2,3-c]pyridine-3,6(7H)-dicarboxylate]
melting point: 128 to 130 °C | IC50 [2, 5]: 22 ± 4 µM | IC50 [3]: 67 ± 20 µM | IC50 [4]: 22 ± 8 µM

CCOC(=O)c1c(Nc2cc(OC)c(OC)c(OC)c2)sc2c1CCN(C(=O)OCC)C2 [Compound 3g, Diethyl 2-((3,4,5-trimethoxyphenyl)amino)-4,5-dihydrothieno[2,3-c]pyridine-3,6(7H)-dicarboxylate]
melting point: 67 to 69 °C | IC50 [2, 5]: 19 µM | IC50 [3]: 19 ± 4 µM | IC50 [4]: 19 ± 1 µM

CCOC(=O)c1c(Nc2cc(OC)c(OC)c(OC)c2)sc2c1CCN(C(C)=O)C2 [Compound 3h, Ethyl 6-acetyl-2-((3,4,5-trimethoxyphenyl)amino)-4,5,6,7-tetrahydrothieno[2,3-c]pyridine-3-carboxylate]
melting point: 93 to 95 °C | IC50 [2, 5]: 25 ± 3 µM | IC50 [3]: 24 ± 3 µM | IC50 [4]: 34 ± 9 µM

COC(=O)N1CCc2c(sc(Nc3cc(OC)c(OC)c(OC)c3)c2C(=O)OC(C)(C)C)C1 [Compound 3i, 3-tert-butyl 6-methyl 2-((3,4,5-trimethoxyphenyl)amino)-4,5-dihydrothieno[2,3-c]pyridine-3,6(7H)-dicarboxylate]
melting point: 50 to 52 °C | IC50 [2, 5]: 18 ± 3 µM | IC50 [3]: 14 ± 1 µM | IC50 [4]: 20 ± 2 µM

CCOC(=O)N1CCc2c(sc(Nc3cc(OC)c(OC)c(OC)c3)c2C(=O)OC(C)(C)C)C1 [Compound 3j, 3-tert-butyl 6-ethyl 2-((3,4,5-trimethoxyphenyl)amino)-4,5-dihydrothieno[2,3-c]pyridine-3,6(7H)-dicarboxylate]
melting point: 60 to 62 °C | IC50 [2, 5]: 19 ± 3 µM | IC50 [3]: 20 ± 4 µM | IC50 [4]: 19 ± 2 µM

COc1cc(Nc2sc3c(c2C#N)CCC(C)C3)cc(OC)c1OC (centres unmarked) [Compound 3k, 6. -Methyl-2-((3,4,5-trimethoxyphenyl)amino)-4,5,6,7-tetrahydrobenzo[b]thiophene-3-carbonitrile]
melting point: 112 to 114 °C | IC50 [2, 5]: > 250 µM | IC50 [3]: 202 ± 25 µM | IC50 [4]: > 250 µM

COc1cc(Nc2sc3c(c2C#N)CCC(c2ccccc2)C3)cc(OC)c1OC (centres unmarked) [Compound 3l, 6. -Phenyl-2-((3,4,5-trimethoxyphenyl)amino)-4,5,6,7-tetrahydrobenzo[b]thiophene-3-carbonitrile]
melting point: 169 to 170 °C | IC50 [2, 5]: 92 ± 29 µM | IC50 [3]: 124 ± 8 µM | IC50 [4]: 58 ± 53 µM

COC(=O)c1c(Nc2cc(OC)c(OC)c(OC)c2)sc2c1CCC(C)C2 (centres unmarked) [Compound 3m, Methyl 6-methyl-2-((3,4,5-trimethoxyphenyl)amino)-4,5,6,7-tetrahydrobenzo[b]thiophene-3-carboxylate]
melting point: 127 to 129 °C | IC50 [2, 5]: 82 ± 13 µM | IC50 [3]: 11 ± 6 µM | IC50 [4]: 45 ± 17 µM

COC(=O)c1c(Nc2cc(OC)c(OC)c(OC)c2)sc2c1CCC(c1ccccc1)C2 (centres unmarked) [Compound 3n, Methyl 6-phenyl-2-((3,4,5-trimethoxyphenyl)amino)-4,5,6,7-tetrahydrobenzo[b]thiophene-3-carboxylate]
melting point: 147 to 148 °C | IC50 [2, 5]: 101 ± 9 µM | IC50 [3]: 48 ± 6 µM | IC50 [4]: 102 ± 50 µM

CCOC(=O)c1c(Nc2cc(OC)c(OC)c(OC)c2)sc2c1CCC(C)C2 (centres unmarked) [Compound 3o, Ethyl 6-methyl-2-((3,4,5-trimethoxyphenyl)amino)-4,5,6,7-tetrahydrobenzo[b]thiophene-3-carboxylate]
melting point: 90 to 92 °C | IC50 [2, 5]: 86 ± 41 µM | IC50 [3]: 66 ± 6 µM | IC50 [4]: 78 ± 33 µM

CCOC(=O)c1c(Nc2cc(OC)c(OC)c(OC)c2)sc2c1CCC(c1ccccc1)C2 (centres unmarked) [Compound 3p, Ethyl 6-phenyl-2-((3,4,5-trimethoxyphenyl)amino)-4,5,6,7-tetrahydrobenzo[b]thiophene-3-carboxylate]
melting point: 98 to 100 °C | IC50 [2, 5]: 112 ± 1 µM | IC50 [3]: 169 ± 18 µM | IC50 [4]: 88 ± 12 µM
